Laboratory results as given in PubChem BioAssay AID504551 (Southern Research Specialized Biocontainment Screening …, 2011).

Each compound was assayed on MAGI-CCR5/HeLa-R5-16 cell fusion, beta-gal luminescence (assay: inhibitors of CCR5-tropic HIV-1 Env cell-cell fusion, dose response, MAGI-CCR5 and HeLa-R5-16 cells, 2% serum, set 2 (AID 504551)).

IC50, active:
Cc1c2c(=O)n(-c3nc4ccccc4s3)nc-2cc(O)n1Cc1ccc(F)cc1 3.42 µM
Cc1c2c(=O)n(-c3nc4ccccc4s3)nc-2cc(O)n1C1CC1 3.75 µM
Cc1c2c(=O)n(-c3nc4ccccc4s3)nc-2cc(O)n1CCC(C)C 3.25 µM
Cc1c2c(=O)n(-c3nc4ccccc4s3)nc-2cc(O)n1Cc1cccnc1 3.64 µM
Cc1c2c(=O)n(-c3nc4ccccc4s3)nc-2cc(O)n1CCc1ccc(O)cc1 3.36 µM
Cc1c2c(=O)n(-c3nc4ccccc4s3)nc-2cc(O)n1Cc1ccccc1Cl 3.4 µM
COc1ccc(CCn2c(O)cc3nn(-c4nc5ccccc5s4)c(=O)c-3c2C)cc1 3.49 µM
COc1ccccc1Cn1c(O)cc2nn(-c3nc4ccccc4s3)c(=O)c-2c1C 3.73 µM
Cc1c2c(=O)n(-c3nc4ccccc4s3)nc-2cc(O)n1Cc1cccs1 3.5 µM
Cc1c2c(=O)n(-c3nc4ccccc4s3)nc-2cc(O)n1Cc1ccncc1 3.94 µM
Cc1c2c(=O)n(-c3nc4ccccc4s3)nc-2cc(O)n1Cc1ccccc1 3.94 µM
COc1ccc(Cn2c(O)cc3nn(-c4nc5ccccc5s4)c(=O)c-3c2C)cc1 3.57 µM
Cc1c2c(=O)n(-c3nc4ccccc4s3)nc-2cc(O)n1CCc1cccs1 3.7 µM
